In patent US20060069132A1, “Azolecarboxamide herbicides” (priority 2004, published 2006):

Experiments:
barnyardgrass [1] = assay: Test B flooded paddy test; format: in vivo, Echinochloa crus-galli; conditions: 1000 g ai/ha, scale 0 to 100 (0 no effect, 100 complete control)
Outline: (§1)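 Postemergence plants were sprayed with formulated test chemicals at 2 to 18 cm height (1- to 4-leaf stage); paddy species were grown to the 2-leaf stage. After 13 to 15 days in a greenhouse, injury was rated visually against untreated controls on a 0–100 scale (0 = no effect, 100 = complete control).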

giant foxtail = assay: Test B pre-/postemergence herbicide test; format: in vivo, Setaria faberi; conditions: for Plant response rating (0 to 100 scale), Foxtail, Giant: 0 is no effect, preemergence
Outline: (§2)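 Herbicidal effect was judged by eye on a 0–100 scale after plants stood 13 to 15 days in the greenhouse following pre- or postemergence treatment with surfactant-containing formulations.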

wheat = assay: Test B postemergence herbicide test; format: in vivo, Triticum aestivum; set-up: key to Wheat plant response rating: 0 = no effect, 100 = complete control
Outline: (§3)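 Read-out: visual comparison with controls, scored 0 to 100, where 100 means complete control and 0 no effect. Formulated chemicals were applied postemergence to plants 2–18 cm tall (1- to 4-leaf), or to flooded-paddy plants at the 2-leaf stage, then held 13 to 15 days under glass.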

[2] = tested on: small flower umbrella sedge; assay: Test B flooded paddy test; format: in vivo, Cyperus difformis; conditions: 1000 g ai/ha, scale 0 to 100 (0 no effect, 100 complete control)
Outline: as §1

morningglory = assay: Test B pre-/postemergence herbicide test; format: in vivo, Ipomoea coccinea; conditions: for Plant response rating (0 to 100 scale), Morningglory: 0 is no effect, 100 is complete control, preemergence; for Morningglory plant response rating: scale 0 (no effect) to 100 (complete control)
Outline: (§4)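 Seeds were planted and treated preemergence with compounds formulated in a non-phytotoxic solvent mixture containing surfactant, while plants at the 1- to 4-leaf stage (2 to 18 cm) received postemergence sprays. Flooded paddy plants were grown to the 2-leaf stage. After 13 to 15 days in a greenhouse, injury was visually rated 0–100 against untreated controls.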

Surinam grass = assay: Test B pre-/postemergence herbicide test; format: in vivo, Urochloa decumbens; conditions: for Plant response rating (0 to 100 scale), Surinam Grass: 0 is no effect, 100 is complete control, preemergence; for Surinam Grass plant response rating: scale 0 (no effect) to 100 (complete control)
Outline: as §2

rice = assay: Test B flooded paddy test; format: in vivo, Oryza sativa; conditions: 1000 g ai/ha, scale 0 to 100 (0 no effect, 100 complete control)
Outline: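 Treated at 2-leaf (paddy) or 1–4-leaf, 2–18 cm (postemergence); greenhouse 13–15 d; visual score vs control, 0 none to 100 complete control; dash = not tested.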

lambsquarters = assay: Test B pre-/postemergence herbicide test; format: in vivo, Chenopodium album; conditions: for Plant response rating (0 to 100 scale), Lambsquarters: 0 is no effect, 100 is complete control, preemergence; for Lambsquarters plant response rating: scale 0 (no effect) to 100 (complete control)
Outline: as §2

large crabgrass = assay: Test B pre-/postemergence herbicide test; format: in vivo, Digitaria sanguinalis; conditions: for Plant response rating (0 to 100 scale), Crabgrass, Large: 0 is no effect, preemergence
Outline: as §2

wild oat = assay: Test B postemergence herbicide test; format: in vivo, Avena fatua; conditions: scale 0 (no effect) to 100 (complete control)
Outline: as §3

corn = assay: Test B pre-/postemergence herbicide test; format: in vivo, Zea mays; conditions: for Plant response rating (0 to 100 scale), Corn: 0 is no effect, preemergence
Outline: as §2

velvetleaf = assay: Test B pre-/postemergence herbicide test; format: in vivo, Abutilon theophrasti; conditions: for Plant response rating (0 to 100 scale), Velvetleaf: 0 is no effect, 100 is complete control, preemergence; for Velvetleaf plant response rating: scale 0 (no effect) to 100 (complete control)
Outline: as §2

barnyardgrass [3] = assay: Test B pre-/postemergence herbicide test; format: in vivo, Echinochloa crus-galli; conditions: for Plant response rating (0 to 100 scale), Barnyardgrass: 0 is no effect, preemergence
Outline: as §4

pigweed = assay: Test B pre-/postemergence herbicide test; format: in vivo, Amaranthus retroflexus; conditions: for Plant response rating (0 to 100 scale), Pigweed: 0 is no effect, 100 is complete control, preemergence; for Pigweed plant response rating: scale 0 (no effect) to 100 (complete control)
Outline: as §2

cocklebur = assay: Test B pre-/postemergence herbicide test; format: in vivo, Xanthium strumarium; conditions: for Plant response rating (0 to 100 scale), Cocklebur: 0 is no effect, preemergence
Outline: as §4

[4] = 125 g ai/ha, 100 is complete control
[5] = 125 g ai/ha, visual rating, scale 0 (no effect) to 100 (complete control), postemergence
[6] = postemergence, 500 g ai/ha, scale 0 to 100, 0 is no effect, 100 is complete control
[7] = 500 g ai/ha, scale 0 to 100, 0 no effect, 100 complete control, preemergence
[8] = Postemergence, 500 g ai/ha, scale 0 (no effect) to 100 (complete control)
[9] = 125 g ai/ha, visual rating, postemergence

| Compound | Barnyardgrass plant response rating (barnyardgrass [1]) | Plant response rating (0 to 100 scale), Foxtail, Giant (giant foxtail; [4]) | Foxtail, Giant plant response rating (giant foxtail; [5]) | Wheat plant response rating (wheat; [5]) | Wheat plant response rating (wheat; [7]) | Wheat plant response rating (wheat; [8]) | Sedge, Umbrella plant response rating [2] | Plant response rating (0 to 100 scale), Morningglory (morningglory; 125 g ai/ha) | Morningglory plant response rating (morningglory; [9]) | Morningglory plant response rating (morningglory; Postemergence, 500 g ai/ha) | Plant response rating (0 to 100 scale), Surinam Grass (Surinam grass; 125 g ai/ha) | Surinam Grass plant response rating (Surinam grass; [9]) | Surinam Grass plant response rating (Surinam grass; Postemergence, 500 g ai/ha) | Rice plant response rating (rice) | Plant response rating (0 to 100 scale), Lambsquarters (lambsquarters; 125 g ai/ha) | Lambsquarters plant response rating (lambsquarters; [9]) | Lambsquarters plant response rating (lambsquarters; Postemergence, 500 g ai/ha) | Plant response rating (0 to 100 scale), Crabgrass, Large (large crabgrass; [4]) | Crabgrass, Large plant response rating (large crabgrass; [5]) | Oat, Wild plant response rating (wild oat; [9]) | other results |
| --- | --- | --- | --- | --- | --- | --- | --- | --- | --- | --- | --- | --- | --- | --- | --- | --- | --- | --- | --- | --- | --- |
| CCOC(=O)c1cccc(NC(=O)c2nn(C(C)(C)CC)nc2CC)c1 [Compound 375] | 40 | 50 | 40 | 30 | 30 | 40 | 80 | 10 | 20 | 40 | 40 | 20 | 30 | 40 | 50 | 20 | 40 | 20 | 20 | 40 | Foxtail, Giant plant response rating (giant foxtail; [6]): 70; Crabgrass, Large plant response rating (large crabgrass; [6]): 40; Oat, Wild plant response rating (wild oat; Postemergence, 500 g ai/ha): 50; Plant response rating (0 to 100 scale), Corn (corn; [4]): 0; Corn plant response rating (corn; [5]): 20; Corn plant response rating (corn; [6]): 40; Plant response rating (0 to 100 scale), Velvetleaf (velvetleaf; 125 g ai/ha): 30; Velvetleaf plant response rating (velvetleaf; [9]): 70; Velvetleaf plant response rating (velvetleaf; Postemergence, 500 g ai/ha): 90; Plant response rating (0 to 100 scale), Barnyardgrass (barnyardgrass [3]; [4]): 20; Barnyardgrass plant response rating (barnyardgrass [3]; [5]): 30; Barnyardgrass plant response rating (barnyardgrass [3]; [6]): 70; Plant response rating (0 to 100 scale), Pigweed (pigweed; 125 g ai/ha): 70; Pigweed plant response rating (pigweed; [9]): 40; Pigweed plant response rating (pigweed; Postemergence, 500 g ai/ha): 80; Plant response rating (0 to 100 scale), Cocklebur (cocklebur; [4]): 0; Cocklebur plant response rating (cocklebur; [5]): 30; Cocklebur plant response rating (cocklebur; [6]): 60 |
| CCc1nn(C(C)(C)C)nc1C(=O)Nc1cccc(C(=O)N(C)CC)c1 [Compound 384] | 90 | 90 | 10 | 10 | 100 | 20 | 80 | 10 | 30 | 40 | 100 | 10 | 60 | 90 | 100 | 70 | 80 | 90 | 10 | 10 | Foxtail, Giant plant response rating (giant foxtail; [6]): 30; Crabgrass, Large plant response rating (large crabgrass; [6]): 40; Oat, Wild plant response rating (wild oat; Postemergence, 500 g ai/ha): 30; Plant response rating (0 to 100 scale), Corn (corn; [4]): 80; Corn plant response rating (corn; [5]): 0; Corn plant response rating (corn; [6]): 10; Plant response rating (0 to 100 scale), Velvetleaf (velvetleaf; 125 g ai/ha): 70; Velvetleaf plant response rating (velvetleaf; [9]): 30; Velvetleaf plant response rating (velvetleaf; Postemergence, 500 g ai/ha): 70; Plant response rating (0 to 100 scale), Barnyardgrass (barnyardgrass [3]; [4]): 90; Barnyardgrass plant response rating (barnyardgrass [3]; [5]): 0; Barnyardgrass plant response rating (barnyardgrass [3]; [6]): 30; Plant response rating (0 to 100 scale), Pigweed (pigweed; 125 g ai/ha): 90; Pigweed plant response rating (pigweed; [9]): 30; Pigweed plant response rating (pigweed; Postemergence, 500 g ai/ha): 70; Plant response rating (0 to 100 scale), Cocklebur (cocklebur; [4]): 0; Cocklebur plant response rating (cocklebur; [5]): 30; Cocklebur plant response rating (cocklebur; [6]): 40 |
| CCNC(=O)c1cccc(NC(=O)c2nn(C(C)(C)C)nc2C)c1 [Compound 392] | 90 | 80 | 20 | 0 | 100 | 10 | 80 | 90 | 20 | 70 | 70 | 10 | 20 | 80 | 100 | 70 | 90 | 100 | 10 | 0 | Foxtail, Giant plant response rating (giant foxtail; [8]): 30; Crabgrass, Large plant response rating (large crabgrass; [8]): 20; Oat, Wild plant response rating (wild oat; Postemergence, 500 g ai/ha): 30; Plant response rating (0 to 100 scale), Corn (corn; [4]): 70; Corn plant response rating (corn; [5]): 0; Corn plant response rating (corn; [8]): 20; Plant response rating (0 to 100 scale), Velvetleaf (velvetleaf; 125 g ai/ha): 70; Velvetleaf plant response rating (velvetleaf; [9]): 30; Velvetleaf plant response rating (velvetleaf; Postemergence, 500 g ai/ha): 40; Plant response rating (0 to 100 scale), Barnyardgrass (barnyardgrass [3]; [4]): 90; Barnyardgrass plant response rating (barnyardgrass [3]; [5]): 10; Barnyardgrass plant response rating (barnyardgrass [3]; [8]): 20; Plant response rating (0 to 100 scale), Pigweed (pigweed; 125 g ai/ha): 100; Pigweed plant response rating (pigweed; [9]): 60; Pigweed plant response rating (pigweed; Postemergence, 500 g ai/ha): 60; Plant response rating (0 to 100 scale), Cocklebur (cocklebur; [4]): 40; Cocklebur plant response rating (cocklebur; [5]): 20; Cocklebur plant response rating (cocklebur; [8]): 40 |
| Cc1nn(C(C)(C)C)nc1C(=O)Nc1cccc(C(=O)N2CC=CC2)c1 [Compound 393] | 90 | 80 | 20 | 0 | 100 | 10 | 90 | 20 | 30 | 50 | 80 | 10 | 10 | 80 | 90 | 60 | 80 | 90 | 10 | 10 | Foxtail, Giant plant response rating (giant foxtail; [8]): 30; Crabgrass, Large plant response rating (large crabgrass; [8]): 20; Oat, Wild plant response rating (wild oat; Postemergence, 500 g ai/ha): 30; Plant response rating (0 to 100 scale), Corn (corn; [4]): 40; Corn plant response rating (corn; [5]): 0; Corn plant response rating (corn; [8]): 20; Plant response rating (0 to 100 scale), Velvetleaf (velvetleaf; 125 g ai/ha): 50; Velvetleaf plant response rating (velvetleaf; [9]): 40; Velvetleaf plant response rating (velvetleaf; Postemergence, 500 g ai/ha): 60; Plant response rating (0 to 100 scale), Barnyardgrass (barnyardgrass [3]; [4]): 90; Barnyardgrass plant response rating (barnyardgrass [3]; [5]): 10; Barnyardgrass plant response rating (barnyardgrass [3]; [8]): 20; Plant response rating (0 to 100 scale), Pigweed (pigweed; 125 g ai/ha): 100; Pigweed plant response rating (pigweed; [9]): 40; Pigweed plant response rating (pigweed; Postemergence, 500 g ai/ha): 50; Plant response rating (0 to 100 scale), Cocklebur (cocklebur; [4]): 30; Cocklebur plant response rating (cocklebur; [5]): 30; Cocklebur plant response rating (cocklebur; [8]): 60 |
